The text below walks through data of patent publication EP0638566B1, “5-Aminoflavone derivatives, their preparation and their use as antibacterial, anti-estrogenic and/or antitumor agent” (KYOWA HAKKO KOGYO CO., LTD., priority 1993, dated 1995).

In general, MIC refers to the least concentration at which growth counts as inhibited. The term IC50 denotes the concentration that gives 50% inhibition.

SMILES strings stand for the structures. ≈ marks a conversion by molar mass, not a printed value. Where two headings read alike, the source gives them in different places.

For one assay, the system named is Bacillus subtilis #10107. Put plainly: Antibacterial activity, agar dilution method. Format: cell-based. The protocol: Antibacterial activity of compound (I) against Bacillus subtilis #10107 [Minimum Inhibition Concentration(MIC; µg/ml)] is shown in Table 6. Minimum Inhibition Concentration was determined by agar dilution method at pH 7.0.
Assay [1] relates to estrogen-dependent human mammary cancer Br-10. Put plainly: Antitumor effects against Br-10 tumor transplanted in nude mice. To be noted: 5 days per week for two to four weeks. Format: in vivo, female BALB/c-nu/nu mice. The source says:
Antitumor effects against estrogen-dependent human mammary cancer Br-10
The tumor fragment (2mm x 2mm x 2mm) of human hormone dependent mammary cancer Br-10 was transplanted subcutaneously in the flank of female BALB/c-nu/nu mice (Nihon Crea), 7 to 9 weeks age. […] 3 to 4 Weeks after transplantation, mice the tumor volume of which increased to 30 to 150 mm^3 were selected, and the test compounds were orally administered repeatedly to the groups (5 animals per group) for 5 days per a week, for total two to four weeks. Estradiol propionate was additionally administered on the date of initial administration of the test compounds and 14 days after the administration. Length and breadth of the tumor were determined every day, and the tumor volumes were calculated by means of ellipsoid approximation according to the above equation. The tumor volume at initial administration (Vo) and on the day of judgement (V) was calculated, and the tumor growth rate (V/Vo) was calculated. T/C value was obtained as the ratio of V/Vo value of treated group relative to that of control group.

For assay [2], the system named is estrogen-dependent human mammary cancer MCF-7. The experiment in a line: Antitumor effects against MCF-7 tumor transplanted in nude mice. Type of assay: in vivo, female BALB/c-nu/nu mice. Particulars: Mus musculus, MCF7, 5 days per week for two weeks, read-out: T/C; for response vs control in vivo at 50 mg/kg: dose 50 mg/kg oral. The source says: Antitumor effects against estrogen-dependent human mammary cancer MCF-7
The tumor fragment (2mm x 2mm x 2mm) of human hormone dependent mammary cancer MCF-7 was transplanted subcutaneously in the flank of female BALB/c-nu/nu mice (Nihon Crea), 7 to 9 weeks age. […] 3 to 4 Weeks after transplantation, mice of the tumor volume of 25 to 200 mm^3 were selected, and the test compounds were orally administered repeatedly to the groups (5 animals per group) for 5 days per a week, for total two weeks. In addition, estradiol propionate was administered again on the date of initial administration of the test compounds. Length and width of the tumor were determined every day, and the tumor volumes were calculated by means of ellipsoid approximation according to the following equation: […] [formula] The tumor volume at initial administration (Vo) and on the day of judgement (V) was calculated, and the tumor growth rate (V/Vo) was calculated. T/C value was obtained as the ratio of V/Vo value of treated group relative to that of control group.

The subject of assay [3] is Human mammary cancer MCF-7 cell. The experiment in a line: Human mammary cancer MCF-7 cell growth inhibition test (neutral red). Type of assay: cell-based. The protocol: Human mammary cancer MCF-7 cell growth inhibition test
Each 0.1 ml of MCF-7 cells which had been prepared to 5 x 10^4/ml using a medium (referred to as Medium B hereinafter) prepared by adding 10% bovine fetal serum, 10^-8M estradiol (manufactured by Sigma), 100 units/ml penicillin and 100 µg/ml streptomycin to RPMI1640 medium was distributed in each well of 96 well-microtiter plate. […] Supernatant was removed, each 0.1 ml of Medium B containing 0.02% neutral red was added to the residue, the mixture was cultured at 37 °C for 1 hour in a CO2 gas incubator and the cells were stained by neutral red dye. Supernatant was removed and the residue was washed once with a physiological saline. Then, the dye was extracted with 0.001N hydrochloric acid/30% ethanol and the absorbance at 550 nm was determined with a microplatereader.

Assay [4] relates to uterus weight of immature mice. Put plainly: Effect against the increase in uterus weight of immature mice. Format: in vivo, female BALB/c mice. Particulars: for Weight of uterus: oral, three days, uteri isolated after four days. The protocol: The effect against the increase in uterus weight of immature mice
Immature female BALB/c mice, 4 weeks age, were divided into two groups and 50 µg of estradiol was subcutaneously administered to the animals of one group in the chest. The test compounds were repeatedly administered orally to each group (8 animals per group) for three days since the date of estradiol administration. After four days, the uteri were isolated and the weight thereof was measured.
In Table 2, "estradiol (-)" represents an estradiol-untreated group and "estradiol (+)" represents an estradiol-treated group.

[5] abbreviates: Minimum Inhibition Concentration, agar dilution method at pH 7.0, read-out: MIC.
The mark [6] stands for this setting: dose 25 mg/kg oral, judgement day 18.
Where [7] appears, read: MCF7, MCF-7 cells, medium with 10^-8M estradiol, 72 hours, neutral red, absorbance at 550 nm, read-out: IC50.

For the compound `CCN(CC)CCCNc1c(F)c(C)c(F)c2oc(-c3ccc(N)c(F)c3)cc(=O)c12` [Compound 38, 2-(4-Amino-3-fluorophenyl)-5-[3-(diethylamino)propylamino]-6,8-difluoro-7-methyl-4H-1-benzopyran-4-one], the MIC in the assay on Bacillus subtilis #10107 (setting [5]) was found to be 13 µg/mL (≈ 30 µM).

`Cc1c(F)c(N)c2c(=O)cc(-c3ccc(N)c(F)c3)oc2c1F` [Compound 1, 5-Amino-2-(4-amino-3-fluorophenyl)-6,8-difluoro-7-methyl-4H-1-benzopyran-4-one] displayed a T/C in assay [1] (setting [6]) of 0.12. For the same compound, in assay [2] (judgement day 18), the response vs control in vivo at 50 mg/kg was 6.4%. Moreover, the IC50 in assay [3] (setting [7]) was found to be 0.013 µM. Also, the Weight of uterus was determined as 38 mg in assay [4] (estradiol (+) (50 µg estradiol s.c.), dose 50 mg/kg) and 17 mg in assay [4] (estradiol (-) (estradiol-untreated group), dose 50 mg/kg).

`NCc1c(F)c(N)c2c(=O)cc(-c3ccc(N)c(F)c3)oc2c1F` [Compound 41, 5-Amino-2-(4-amino-3-fluorophenyl)-7-aminomethyl-6,8-difluoro-4H-1-benzopyran-4-one]: the MIC in the assay on Bacillus subtilis #10107 (pH 7) worked out at 3.26 µg/mL (≈ 9.72 µM). The response vs control in vivo at 50 mg/kg in assay [2] (judgement day 18) worked out at 1.1%. In assay [3] (MCF7, 72 h), this compound registered an IC50 of 0.026 µM.

`CN(C)CCOc1c(F)c(N)c2c(=O)cc(-c3ccc(N)c(F)c3)oc2c1F` [Compound 9, 5-Amino-2-(4-amino-3-fluorophenyl)-7-(2-dimethylaminoethoxy)-6,8-difluoro-4H-1-benzopyran-4-one] came in with an MIC with Bacillus subtilis #10107 (pH 7) of 52.1 µg/mL (≈ 132 µM). Moreover, the response vs control in vivo at 50 mg/kg in assay [2] (judgement day 15) stood at 42%. In addition, in assay [3] (MCF7, 72 h), the IC50 turned out to be 1.4 µM.

In the case of `Nc1ccc(-c2cc(=O)c3c(N)c(F)c(N)c(F)c3o2)cc1F` [Compound 16, 5,7-Diamino-2-(4-amino-3-fluorophenyl)-6,8-difluoro-4H-1-benzopyran-4-one], the T/C in assay [1] (dose 12.5 mg/kg oral, judgement day 18) is on record as 0.24. Besides, the response vs control in vivo at 12.5 mg/kg in assay [2] (dose 12.5 mg/kg oral, judgement day 22) is 18%. In addition, in assay [3] (MCF7, 72 h), the IC50 was determined as 0.0077 µM.

For `CC(=O)c1c(F)c(N)c2c(=O)cc(-c3ccc(N)c(F)c3)oc2c1F` [Compound 22, 7-Acetyl-5-amino-2-(4-amino-3-fluorophenyl)-6,8-difluoro-4H-1-benzopyran-4-one], the MIC in the assay on Bacillus subtilis #10107 (setting [5]) was 13 µg/mL (≈ 37.3 µM).

For `Cc1c(F)c(NCCCN(C)C)c2c(=O)cc(-c3ccc(N)c(F)c3)oc2c1F` [Compound 37, 2-(4-Amino-3-fluorophenyl)-5-[3-(dimethylamino)propylamino]-6,8-difluoro-7-methyl-4H-1-benzopyran-4-one], the minimum inhibitory concentration (MIC) with Bacillus subtilis #10107 (setting [5]) was 13 µg/mL (≈ 32.1 µM).

Compound `CC/C(=C(\c1ccccc1)c1ccc(OCCN(C)C)cc1)c1ccccc1` [Tamoxifen] had a T/C in assay [1] (dose 5 mg/kg oral, judgement day 25) of 0.58. Further, in assay [2] (dose 5 mg/kg oral, judgement day 22), the response vs control in vivo at 5 mg/kg was determined as 25%. For the same compound, the Weight of uterus came out at 47 mg in assay [4] (estradiol (+) (50 µg estradiol s.c.), dose 5 mg/kg) and 49 mg in assay [4] (estradiol (-) (estradiol-untreated group), dose 5 mg/kg). Besides, the “anti-estrogenic activity (increase in the uterus weight observed in an estradiol-treated group)” value in assay [4] (result in words, estradiol-treated group, oral administration) was “weak anti-estrogenic activity”. Moreover, in assay [4] (result in words, estradiol-untreated group), the “weight of the uterus in an estradiol-untreated group” value is reported as “significantly increases the weight of the uterus”.

In the case of `CN(C)CCCNc1c(F)c(N)c2c(=O)cc(-c3ccc(N)c(F)c3)oc2c1F` [Compound 18, 5-Amino-2-(4-amino-3-fluorophenyl)-7-[3-(dimethylamino)propylamino]-6,8-difluoro-4H-1-benzopyran-4-one], the MIC in the assay with Bacillus subtilis #10107 (setting [5]) is 52.1 µg/mL (≈ 128 µM).

`CN(C)c1c(F)c(N)c2c(=O)cc(-c3ccc(N)c(F)c3)oc2c1F` [Compound 17, 5-Amino-2-(4-amino-3-fluorophenyl)-7-dimethylamino-6,8-difluoro-4H-1-benzopyran-4-one] gave a T/C in assay [1] (setting [6]) of 0.22. Further, the IC50 in assay [3] (setting [7]) is 0.039 µM.
